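Compound exposure: 48 hours, 5 concentrations, 96-well plates. GI50: concentration for 50% inhibition of growth.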 Calls of active or inactive are those of the source. Rule as the data show it: active = GI50 up to about 1.1 µM and inactive = higher.
Assays:
Assay in all cases: inhibition of tumour cell growth, NCI panel, 48 h
SW-620 = system: SW-620
SN12C = system: SN12C
SK-MEL-2 = system: SK-MEL-2
EKVX = system: EKVX
NCI-H460 = system: NCI-H460
SK-MEL-28 = system: SK-MEL-28
CCRF-CEM = system: CCRF-CEM
786-0 = system: 786-0
HT-29 = system: HT-29
HOP-62 = system: HOP-62
SK-MEL-5 = system: SK-MEL-5
HOP-92 = system: HOP-92
PC-3 = system: PC-3
T47D = system: T47D
NCI/ADR-RES = system: NCI/ADR-RES
Hs-578T = system: Hs-578T
A498 = system: A498
BT-549 = system: BT-549
MCF7 = system: MCF7

| Structure (SMILES) | GI50 (SW-620) | GI50 (SN12C) | GI50 (SK-MEL-2) | GI50 (EKVX) | GI50 (NCI-H460) | GI50 (SK-MEL-28) | GI50 (CCRF-CEM) | GI50 (786-0) | GI50 (HT-29) | GI50 (HOP-62) | GI50 (SK-MEL-5) | GI50 (HOP-92) | GI50 (PC-3) | GI50 (T47D) | GI50 (NCI/ADR-RES) | GI50 (Hs-578T) | GI50 (A498) | GI50 (BT-549) | GI50 (MCF7) |
| --- | --- | --- | --- | --- | --- | --- | --- | --- | --- | --- | --- | --- | --- | --- | --- | --- | --- | --- | --- |
| CN(C)CCCNc1ccnc2c([N+](=O)[O-])cccc12 | 15.2 µM (inactive) | 14.6 µM (inactive) | > 10 µM (inactive) | 10.5 µM (inactive) | 15.5 µM (inactive) | 95.7 µM (inactive) | 34.3 µM (inactive) | 22.2 µM (inactive) | 3.56 µM (inactive) | 29.3 µM (inactive) | – | – | – | – | – | – | – | – | – |
| C[C@@H](CO)C1=CC(C#C[Si](C)(C)C)N(C(=O)Oc2ccccc2)c2ccccc21 (some centres not stated) | 24 µM (inactive) | 16.8 µM (inactive) | 16.9 µM (inactive) | 23.3 µM (inactive) | 18.1 µM (inactive) | 18.2 µM (inactive) | 20.4 µM (inactive) | 17.2 µM (inactive) | 16 µM (inactive) | 15 µM (inactive) | 16 µM (inactive) | 11.7 µM (inactive) | 19.6 µM (inactive) | 18.2 µM (inactive) | 11.8 µM (inactive) | 25.1 µM (inactive) | – | – | – |
| O=c1c(C(c2ccco2)c2c(O)oc3ccccc3c2=O)c(O)oc2ccccc12 | 21.4 µM (inactive) | 25.1 µM (inactive) | 51.6 µM (inactive) | 47 µM (inactive) | > 100 µM (inactive) | 21.2 µM (inactive) | 26.8 µM (inactive) | 25.1 µM (inactive) | 47.6 µM (inactive) | > 100 µM (inactive) | 40.3 µM (inactive) | 25.5 µM (inactive) | > 100 µM (inactive) | 43.3 µM (inactive) | 30.5 µM (inactive) | 51.1 µM (inactive) | > 100 µM (inactive) | – | – |
| CC1(C)c2ccccc2C(O)C12CCC(=O)CC2 (configuration not stated) | > 100 µM (inactive) | > 100 µM (inactive) | > 100 µM (inactive) | > 100 µM (inactive) | > 100 µM (inactive) | > 100 µM (inactive) | – | > 100 µM (inactive) | > 100 µM (inactive) | > 100 µM (inactive) | > 100 µM (inactive) | > 100 µM (inactive) | > 100 µM (inactive) | > 100 µM (inactive) | > 100 µM (inactive) | > 100 µM (inactive) | > 100 µM (inactive) | – | – |
| C=C(C)[C@@H]1CC[C@]2(CO)CC[C@]3(C)[C@H](CC[C@@H]4[C@@]5(C)CC[C@H](O)C(C)(C)[C@@H]5CC[C@]43C)[C@@H]12 [BETULIN] | 20.1 µM (inactive) | 24.8 µM (inactive) | – | 25.6 µM (inactive) | 19.3 µM (inactive) | 33.1 µM (inactive) | 34.5 µM (inactive) | 13.6 µM (inactive) | 20.6 µM (inactive) | 16.7 µM (inactive) | 19.7 µM (inactive) | 16.7 µM (inactive) | 30.2 µM (inactive) | 61.4 µM (inactive) | 30.4 µM (inactive) | – | 21.5 µM (inactive) | 17.6 µM (inactive) | 19.9 µM (inactive) |
| COc1nc(C)nc2c1ncn2Cc1ccccc1 | > 100 µM (inactive) | > 100 µM (inactive) | – | 80.7 µM (inactive) | > 100 µM (inactive) | > 100 µM (inactive) | > 100 µM (inactive) | > 100 µM (inactive) | > 100 µM (inactive) | > 100 µM (inactive) | > 100 µM (inactive) | < 0.01 µM (active) | > 100 µM (inactive) | > 100 µM (inactive) | > 100 µM (inactive) | 99.8 µM (inactive) | > 100 µM (inactive) | – | 58.9 µM (inactive) |
| C[n+]1c2ccccc2c(/C=N\NS(=O)(=O)c2ccc(O)c(C(=O)O)c2)c2ccccc21 | 41.1 µM (inactive) | 67.8 µM (inactive) | 63.5 µM (inactive) | 78.9 µM (inactive) | 36.2 µM (inactive) | 61.7 µM (inactive) | 21.8 µM (inactive) | 34.4 µM (inactive) | 35.3 µM (inactive) | > 100 µM (inactive) | 39.8 µM (inactive) | 46.7 µM (inactive) | – | – | – | – | 37.6 µM (inactive) | – | – |
| CNC(=O)ON(C(C)=O)C(=O)NC [CARACEMIDE] | 52 µM (inactive) | 58.9 µM (inactive) | 26 µM (inactive) | – | 78.7 µM (inactive) | 69.5 µM (inactive) | – | 11 µM (inactive) | – | 140 µM (inactive) | 40.3 µM (inactive) | 17.9 µM (inactive) | 26.5 µM (inactive) | 9.38 µM (inactive) | 67.1 µM (inactive) | – | 87.7 µM (inactive) | 19.3 µM (inactive) | 51.5 µM (inactive) |
| O=C(c1ccccc1)c1c(-c2ccccc2)sc2nc3ccccc3nc12 | > 100 µM (inactive) | > 100 µM (inactive) | > 100 µM (inactive) | > 100 µM (inactive) | > 100 µM (inactive) | > 100 µM (inactive) | > 100 µM (inactive) | 38.1 µM (inactive) | > 100 µM (inactive) | 34.8 µM (inactive) | 80.9 µM (inactive) | 16.4 µM (inactive) | – | – | – | – | > 100 µM (inactive) | – | – |
| c1ccc(C2(c3ccccc3)S/C(=C3/SC(c4ccccc4)(c4ccccc4)c4ccccc43)c3ccccc32)cc1 | > 100 µM (inactive) | > 100 µM (inactive) | > 100 µM (inactive) | > 100 µM (inactive) | > 100 µM (inactive) | > 100 µM (inactive) | > 100 µM (inactive) | > 100 µM (inactive) | > 100 µM (inactive) | > 100 µM (inactive) | > 100 µM (inactive) | > 100 µM (inactive) | > 100 µM (inactive) | – | > 100 µM (inactive) | > 100 µM (inactive) | > 100 µM (inactive) | > 100 µM (inactive) | – |
| COc1c(C)c(C/C=C(\C)CC/C=C(\C)CCC=C(C)C)c(OC)c(OC)c1OC | > 100 µM (inactive) | > 100 µM (inactive) | > 100 µM (inactive) | 83.9 µM (inactive) | > 100 µM (inactive) | – | 56.5 µM (inactive) | > 100 µM (inactive) | 76.2 µM (inactive) | > 100 µM (inactive) | 74.5 µM (inactive) | > 100 µM (inactive) | > 100 µM (inactive) | – | > 100 µM (inactive) | > 100 µM (inactive) | – | > 100 µM (inactive) | 44.2 µM (inactive) |
| CC(O)[C@@]1(c2ccccc2)CC2(CCN(C)CC2)O[C@H]1C (some centres not stated) | > 100 µM (inactive) | – | > 100 µM (inactive) | > 100 µM (inactive) | > 100 µM (inactive) | > 100 µM (inactive) | 0.465 µM (active) | > 100 µM (inactive) | > 100 µM (inactive) | > 100 µM (inactive) | 61.2 µM (inactive) | 22.2 µM (inactive) | > 100 µM (inactive) | 33.9 µM (inactive) | > 100 µM (inactive) | > 100 µM (inactive) | > 100 µM (inactive) | – | > 100 µM (inactive) |
| C=C(C(=O)OC)[C@H]1CC/C(C)=C/CC/C(C)=C/CC[C@@]2(C)O[C@@H]2C1 | 18.5 µM (inactive) | 16.9 µM (inactive) | 15.3 µM (inactive) | 18.7 µM (inactive) | – | 34.6 µM (inactive) | 13.1 µM (inactive) | 15.5 µM (inactive) | 17.3 µM (inactive) | 20.7 µM (inactive) | 10.3 µM (inactive) | 16.4 µM (inactive) | 18 µM (inactive) | 16.3 µM (inactive) | 16.4 µM (inactive) | – | 22.1 µM (inactive) | – | 17 µM (inactive) |
| COC(=O)CCN1CCN(CCO)CC1C (configuration not stated) | > 10 µM (inactive) | > 10 µM (inactive) | > 10 µM (inactive) | > 10 µM (inactive) | > 10 µM (inactive) | > 10 µM (inactive) | > 10 µM (inactive) | > 10 µM (inactive) | > 10 µM (inactive) | > 10 µM (inactive) | > 10 µM (inactive) | – | > 10 µM (inactive) | > 10 µM (inactive) | > 10 µM (inactive) | > 10 µM (inactive) | > 10 µM (inactive) | – | > 10 µM (inactive) |
| C=CCOC(=O)Cn1ccc(=O)[nH]c1=O | > 100 µM (inactive) | > 100 µM (inactive) | > 100 µM (inactive) | > 100 µM (inactive) | > 100 µM (inactive) | > 100 µM (inactive) | > 100 µM (inactive) | > 100 µM (inactive) | > 100 µM (inactive) | > 100 µM (inactive) | > 100 µM (inactive) | – | > 100 µM (inactive) | > 100 µM (inactive) | > 100 µM (inactive) | > 100 µM (inactive) | > 100 µM (inactive) | – | > 100 µM (inactive) |
| O=C(O)CCCC#CCCCC(=O)O | – | > 100 µM (inactive) | > 100 µM (inactive) | > 100 µM (inactive) | > 100 µM (inactive) | > 100 µM (inactive) | – | > 100 µM (inactive) | > 100 µM (inactive) | > 100 µM (inactive) | > 100 µM (inactive) | > 100 µM (inactive) | > 100 µM (inactive) | > 100 µM (inactive) | > 100 µM (inactive) | > 100 µM (inactive) | > 100 µM (inactive) | – | > 100 µM (inactive) |
| Cc1cc(C)c(-c2no/c(=N\S(=O)(=O)c3ccc(Cl)cc3)o2)c(C)c1 | > 100 µM (inactive) | > 100 µM (inactive) | 34 µM (inactive) | > 100 µM (inactive) | > 100 µM (inactive) | > 100 µM (inactive) | > 100 µM (inactive) | > 100 µM (inactive) | > 100 µM (inactive) | > 100 µM (inactive) | 23.1 µM (inactive) | – | > 100 µM (inactive) | 93.3 µM (inactive) | 87.3 µM (inactive) | > 100 µM (inactive) | > 100 µM (inactive) | – | 16.4 µM (inactive) |

Source: ChEMBL document CHEMBL1201862, “PubChem BioAssay data set” (2004)
